Results as given in patent US8859018B2, “Delivery carrier for antimicrobial essential oils” (Nestec S.A., priority 2010, dated 2014).

Assays:
[1] = Un-inoculated control samples of the challenge tests in MOS / MAS; conditions: 0.10%
Description: Challenge Test with moulds was according to the following steps: 1) Add 100 g of MOS into a 250 ml sterile Schott bottle with screw-cap cover; 2) Add 0.1 to 2 ml of mould (A. niger/P. nalgiovence/E. amstelodami) inoculum to meet the target inoculum of 10^2-10^3 cfu/g of MOS into the 100 g MOS and shake to mix well; 3) Pour 35 g of the inoculated MOS into a petri dish. Perform this in duplicate; 4) Pipette 1 g of inoculated MOS from the Schott bottle into 9 ml sterile Tryptone Salt 0.1% diluents and vortex. Perform this in duplicate; 5) Plate 0.1-0.5 ml of inoculated Tryptone Salt 0.1% onto DG18 plates at appropriate dilutions by Spread Plate Method. Incubate the agar plates at 25° C. for 5 days to enumerate the initial mould count; 6) Incubate the inoculated MOS in petri dishes at 30° C. for a week. Monitor for mould growth by visual observation after one week. Perform this mould growth monitoring for a period of 4 weeks; 7) The control was prepared by repeating steps 3 to 6 without using any inoculum. The control was plated onto PCA with Cycloheximide plates.
(§1) Challenge Test with yeasts was according to the following steps: 1) Add 100 g of MOS into a 250 ml sterile Schott bottle with screw-cap cover; 2) Add 0.1 ml to 2 ml of yeast (Z. bailii) inoculum to meet the target inoculum of 10^2 to 10^3 cfu/g of MOS into the 100 g MOS and shake to mix well; 3) Pour 35 g of the inoculated MOS into two 150 ml sterile disposable polypropylene container with screw-cap cover; 4) Pipette 1 g of inoculated MOS into 9 ml sterile Tryptone Salt 0.1% diluent and vortex. Perform this in duplicate; 5) Plate 0.1 ml to 0.5 ml of inoculated Tryptone Salt 0.1% onto MEA at appropriate dilutions by Spread Plate Method. Incubate the plates at 30° C. for 3 days for the enumeration of the initial yeast count; 6) Incubate the inoculated MOS in 150 ml containers at 30° C. for a week; 7) After one week, repeat steps 4 to 6 for the weekly monitoring of Z. bailii growth behavior in MOS. Perform the monitoring for a period of 4 weeks; 8) The control was prepared by repeating steps 3 to 7 without using any inoculum.
(§2) The method for producing MAS was the same as for the MOS production in experiment 4. The preparation of the microorganism cultures as well as the challenge tests were identical to the ones described in experiment 4 as well.

[2] = tested on: Zygosaccharomyces bailii (yeast); experiment: Challenge test with yeasts in MOS / MAS; assay type: cell-based; conditions: for Week 0 (Log cfu/g) / Week 1 (Log cfu/g) / Week 2 (Log cfu/g) / Week 3 (Log cfu/g) / Week 4 (Log cfu/g): 0.10%
Description: Target microorganisms used for the challenge tests (CT) were Zygosaccharomyces bailii (yeast), Aspergillus niger (mould), Penicillium nalgiovense (mould) and Eurotium amstelodami (mould).
Stock culture of the yeast was revived on MEB. The inoculated broths were incubated at 30° C. for 48-72 hours with constant swirling. The broth cultures were further sub-cultured in the MEB and incubated similarly at 30° C. for 48-72 hours with constant swirling. The final broth cultures were then analyzed for total yeast counts on MEA plate as well as for microbial contamination on PCA by spread plat 0.1-0.5 ml of suspension onto the agar plates respectively. Before the challenge test is initiated, the broth inoculated with yeast was diluted aseptically with sterile Tryptone Salt 0.1% to the desired level such that the inoculation level in the product would be 2-3 log of colony-forming-units (cfu) of yeast per gram (Cfu: colony forming units).
as §1, §2

[3] = MAGGI Abalone Sauce, age 0 month
[4] = MAGGI Abalone Sauce, age 1 month
[5] = MAGGI Abalone Sauce, age 3 month
[6] = MAGGI Abalone Sauce, age 6 month
[7] = MAGGI Abalone Sauce, age 10 month
[8] = MAGGI Abalone Sauce, age 12 month
[9] = MAGGI Oyster Sauce, age 0 month

For `C/C=C/C=C/C(=O)[O-].[K+]` [KS, potassium sorbate], which “Week 0 (Log cfu/g)” value [1, 3] is on record?
Its value is under 1.00 Log cfu/g.

And the “Week 1 (Log cfu/g)” value [1, 3]?
The value was under 1.00 Log cfu/g.

What about the “Week 2 (Log cfu/g)” value [1, 3] of the same compound?
Its value is under 1.00 Log cfu/g.

What about the “Week 3 (Log cfu/g)” value [1, 3] of the same compound?
Its value is under 1.00 Log cfu/g.

And the “Week 4 (Log cfu/g)” value [1, 3]?
The value was under 1.00 Log cfu/g.

And the “Week 0 (Log cfu/g)” value [1, 4]?
The value was under 1.00 Log cfu/g.

What about the “Week 1 (Log cfu/g)” value [1, 4] of the same compound?
The value was under 1.00 Log cfu/g.

And the “Week 2 (Log cfu/g)” value [1, 4]?
Its value is under 1.00 Log cfu/g.

And the “Week 3 (Log cfu/g)” value [1, 4]?
Its value is under 1.00 Log cfu/g.

And the “Week 4 (Log cfu/g)” value [1, 4]?
Its value is under 1.00 Log cfu/g.

What about the “Week 0 (Log cfu/g)” value [1, 5] of the same compound?
Its value is under 1.00 Log cfu/g.

And the “Week 1 (Log cfu/g)” value [1, 5]?
Its value is under 1.00 Log cfu/g.

What about the “Week 2 (Log cfu/g)” value [1, 5] of the same compound?
Its value is under 1.00 Log cfu/g.

And the “Week 3 (Log cfu/g)” value [1, 5]?
The value was under 1.00 Log cfu/g.

What about the “Week 4 (Log cfu/g)” value [1, 5] of the same compound?
Its value is under 1.00 Log cfu/g.

What about the “Week 0 (Log cfu/g)” value [1, 6] of the same compound?
Its value is under 1.00 Log cfu/g.

What about the “Week 1 (Log cfu/g)” value [1, 6] of the same compound?
The value was under 1.00 Log cfu/g.

What about the “Week 2 (Log cfu/g)” value [1, 6] of the same compound?
Its value is under 1.00 Log cfu/g.

What about the “Week 3 (Log cfu/g)” value [1, 6] of the same compound?
Its value is under 1.00 Log cfu/g.

And the “Week 4 (Log cfu/g)” value [1, 6]?
The value was under 1.00 Log cfu/g.

And the “Week 0 (Log cfu/g)” value [1, 7]?
Its value is under 1.00 Log cfu/g.

And the “Week 1 (Log cfu/g)” value [1, 7]?
The value was under 1.00 Log cfu/g.

And the “Week 2 (Log cfu/g)” value [1, 7]?
The value was under 1.00 Log cfu/g.

And the “Week 3 (Log cfu/g)” value [1, 7]?
Its value is under 1.00 Log cfu/g.

What about the “Week 4 (Log cfu/g)” value [1, 7] of the same compound?
The value was under 1.00 Log cfu/g.

What about the “Week 0 (Log cfu/g)” value [1, 8] of the same compound?
Its value is under 1.00 Log cfu/g.

What about the “Week 1 (Log cfu/g)” value [1, 8] of the same compound?
The value was under 1.30 Log cfu/g.

What about the “Week 2 (Log cfu/g)” value [1, 8] of the same compound?
The value was under 1.30 Log cfu/g.

What about the “Week 3 (Log cfu/g)” value [1, 8] of the same compound?
Its value is under 1.30 Log cfu/g.

And the “Week 4 (Log cfu/g)” value [1, 8]?
Its value is under 1.30 Log cfu/g.

What about the “Week 0 (Log cfu/g)” value [1, 9] of the same compound?
The value was under 1.30 Log cfu/g.

What about the “Week 1 (Log cfu/g)” value [1, 9] of the same compound?
The value was under 1.30 Log cfu/g.

What about the “Week 2 (Log cfu/g)” value [1, 9] of the same compound?
The value was under 1.30 Log cfu/g.

And the “Week 3 (Log cfu/g)” value [1, 9]?
The value was under 1.30 Log cfu/g.

And the “Week 4 (Log cfu/g)” value [1, 9]?
Its value is under 1.30 Log cfu/g.

What about the “Week 0 (Log cfu/g)” value [2, 3] of the same compound?
Its value is under 1.00 Log cfu/g.

And the “Week 1 (Log cfu/g)” value [2, 3]?
Its value is under 1.00 Log cfu/g.

What about the “Week 2 (Log cfu/g)” value [2, 3] of the same compound?
Its value is under 1.00 Log cfu/g.

What about the “Week 3 (Log cfu/g)” value [2, 3] of the same compound?
Its value is under 1.00 Log cfu/g.

What about the “Week 4 (Log cfu/g)” value [2, 3] of the same compound?
Its value is under 1.00 Log cfu/g.

What about the “Week 0 (Log cfu/g)” value [2, 4] of the same compound?
Its value is under 1.00 Log cfu/g.

And the “Week 1 (Log cfu/g)” value [2, 4]?
The value was under 1.63 Log cfu/g.

What about the “Week 2 (Log cfu/g)” value [2, 4] of the same compound?
The value was under 1.00 Log cfu/g.

And the “Week 3 (Log cfu/g)” value [2, 4]?
Its value is under 1.00 Log cfu/g.

And the “Week 4 (Log cfu/g)” value [2, 4]?
The value was under 1.00 Log cfu/g.

And the “Week 0 (Log cfu/g)” value [2, 5]?
Its value is 2.96 Log cfu/g.

And the “Week 1 (Log cfu/g)” value [2, 5]?
The value was under 1.00 Log cfu/g.

What about the “Week 2 (Log cfu/g)” value [2, 5] of the same compound?
The value was under 1.00 Log cfu/g.

What about the “Week 3 (Log cfu/g)” value [2, 5] of the same compound?
Its value is under 1.00 Log cfu/g.

What about the “Week 4 (Log cfu/g)” value [2, 5] of the same compound?
Its value is under 1.00 Log cfu/g.

And the “Week 0 (Log cfu/g)” value [2, 6]?
Its value is 2.13 Log cfu/g.

And the “Week 1 (Log cfu/g)” value [2, 6]?
Its value is under 1.00 Log cfu/g.

And the “Week 2 (Log cfu/g)” value [2, 6]?
The value was under 1.00 Log cfu/g.

What about the “Week 3 (Log cfu/g)” value [2, 6] of the same compound?
The value was under 1.00 Log cfu/g.

And the “Week 4 (Log cfu/g)” value [2, 6]?
Its value is under 1.00 Log cfu/g.

What about the “Week 0 (Log cfu/g)” value [2, 7] of the same compound?
The value was 4.43 Log cfu/g.

And the “Week 1 (Log cfu/g)” value [2, 7]?
Its value is under 2.00 Log cfu/g.

What about the “Week 2 (Log cfu/g)” value [2, 7] of the same compound?
Its value is under 1.00 Log cfu/g.

And the “Week 3 (Log cfu/g)” value [2, 7]?
Its value is under 1.00 Log cfu/g.

What about the “Week 4 (Log cfu/g)” value [2, 7] of the same compound?
The value was under 1.00 Log cfu/g.

What about the “Week 0 (Log cfu/g)” value [2, 8] of the same compound?
Its value is 2.84 Log cfu/g.

What about the “Week 1 (Log cfu/g)” value [2, 8] of the same compound?
Its value is 1.72 Log cfu/g.

What about the “Week 2 (Log cfu/g)” value [2, 8] of the same compound?
Its value is under 1 Log cfu/g.

What about the “Week 3 (Log cfu/g)” value [2, 8] of the same compound?
The value was under 1 Log cfu/g.

And the “Week 4 (Log cfu/g)” value [2, 8]?
The value was under 1 Log cfu/g.

What about the yeast growth ([2]; MAGGI Abalone Sauce, up to 12 months, KS 0.10%, clove leaf oil 0.06 wt % and 0.15 wt %) of the same compound?
The yeast growth was “not detected”.

What about the “Week 0 (Log cfu/g)” value [2, 9] of the same compound?
The value was 3.544 Log cfu/g.

And the “Week 1 (Log cfu/g)” value [2, 9]?
Its value is under 1.00 Log cfu/g.

And the “Week 2 (Log cfu/g)” value [2, 9]?
The value was under 1.00 Log cfu/g.

And the “Week 3 (Log cfu/g)” value [2, 9]?
Its value is under 1.00 Log cfu/g.

And the “Week 4 (Log cfu/g)” value [2, 9]?
The value was under 1.00 Log cfu/g.
